Where “and” joins values, the source holds several entries; their conditions need not be identical. Equal values may be shown once. Read-outs that look alike come from different tables or passages of the source.
Legend:
[1] = tested on: Amaranthus rudis (AMATA), tall water hemp; experiment: Postemergence herbicide evaluation, growth of Amaranthus rudis (AMATA); type: in vivo; conditions: Amaranthus tuberculatus, post-emergence, read-out: Ave. AMATA
[2] = tested on: Ambrosia artemisiifolia (AMBEL), common ragweed; experiment: Postemergence herbicide evaluation, growth of Ambrosia artemisiifolia (AMBEL); type: in vivo; conditions: Ambrosia artemisiifolia, post-emergence, read-out: AVE. AMBEL
[3] = tested on: Abutilon theophrasti (ABUTH), velvetleaf; experiment: Postemergence herbicide evaluation, growth of Abutilon theophrasti (ABUTH); type: in vivo; conditions: Abutilon theophrasti, post-emergence, read-out: AVE. ABUTH
[4] = tested on: Chenopodium album (CHEAL), common lambsquarters; experiment: Postemergence herbicide evaluation, growth of Chenopodium album (CHEAL); type: in vivo; conditions: Chenopodium album, post-emergence, read-out: Ave. CHEAL
[5] = Volatility of compounds measured by thermogravimetric analysis (TGA); type: physicochemical
[6] = tested on: weeds ABUTH, AMATA, AMBEL, CHEAL, ERICA; experiment: Postemergence herbicide evaluation, overall average % weed control across ABUTH, AMATA, AMBEL, CHEAL and ERICA; type: in vivo; conditions: post-emergence, read-out: Overall Ave % Weed Control

Row | SMILES | pest or weed control at 280 g/ha ([1]; 168 h) [%] | pest or weed control at 280 g/ha ([1]; 336 h) [%] | pest or weed control at 560 g/ha ([1]; 336 h) [%] | pest or weed control at 280 g/ha ([1]; 504 h) [%] | pest or weed control at 560 g/ha ([1]; 504 h) [%] | pest or weed control at 560 g/ha ([2]; 168 h) [%] | pest or weed control at 280 g/ha ([2]; 336 h) [%] | pest or weed control at 280 g/ha ([2]; 504 h) [%] | pest or weed control at 560 g/ha ([2]; 504 h) [%] | pest or weed control at 280 g/ha ([3]; 504 h) [%] | pest or weed control at 560 g/ha ([3]; 504 h) [%] | pest or weed control at 280 g/ha ([4]; 168 h) [%] | pest or weed control at 560 g/ha ([4]; 168 h) [%] | pest or weed control at 280 g/ha ([4]; 336 h) [%] | pest or weed control at 560 g/ha ([4]; 336 h) [%] | pest or weed control at 280 g/ha ([4]; 504 h) [%] | pest or weed control at 560 g/ha ([4]; 504 h) [%] | TGA Data (rate of weight loss, volatility) [5] | pest or weed control at 280 g/ha ([6]; 504 h) [%] | pest or weed control at 560 g/ha ([6]; 504 h) [%] | also measured
1 | O=C(COc1ccc(Cl)cc1Cl)OCCCOC(=O)COc1ccc(Cl)cc1Cl [Compound B10] | 70 | 77.5 | 80 | 67.5 | 55 | 57.5 | 67.5 | 90 | 75 | 25 | 27.5 | 77.5 | 72.5 | 75 | 90 | 88.5 | 85 | 0.02488 µg/min | 72.2 | 68 | pest or weed control at 560 g/ha ([1]; 168 h): 62.5%; pest or weed control at 280 g/ha ([2]; 168 h): 62.5%; pest or weed control at 560 g/ha ([2]; 336 h): 67.5%; pest or weed control at 280 g/ha ([3]; 168 h): 27.5%; pest or weed control at 560 g/ha ([3]; 168 h): 22.5%; pest or weed control at 280 g/ha ([3]; 336 h): 25%; pest or weed control at 560 g/ha ([3]; 336 h): 32.5%; pest or weed control at 280 g/ha ([6]; 168 h): 62%; pest or weed control at 560 g/ha ([6]; 168 h): 58%; pest or weed control at 280 g/ha ([6]; 336 h): 64.5%; pest or weed control at 560 g/ha ([6]; 336 h): 69.9%
2 | O=C(COc1ccc(Cl)cc1Cl)OCCCCCCOC(=O)COc1ccc(Cl)cc1Cl [Compound B12] |  |  |  | 62.5 | 62.5 |  |  | 100 | 100 | 55 | 65 |  |  |  |  | 96.5 | 90 | 0.2274 µg/min | 82 | 82.9 | 
3 | O=C(COc1ccc(Cl)cc1Cl)OCCCCCOC(=O)COc1ccc(Cl)cc1Cl [Compound B8] | 84 | 92.5 | 96.5 | 92.5 | 100 | 72.5 | 90 | 100 | 100 | 97 | 99 | 80 | 82.5 | 92.5 | 97 | 96 | 99.5 | 0.3521 µg/min and 0.38 µg/min | 96.8 | 99.7 | pest or weed control at 280 g/ha ([6]; 168 h): 74.3%; pest or weed control at 560 g/ha ([6]; 168 h): 79.8%; pest or weed control at 280 g/ha ([6]; 336 h): 90.4%; pest or weed control at 560 g/ha ([6]; 336 h): 95.9%

Reference: patent US20260042731A1, “(2,4-DICHLOROPHENOXY)ACETIC ACID ANALOGS” (CORTEVA AGRISCIENCE LLC, priority 2022, published 2026)
